In patent US20240050409A1, “Methods and Compositions for Treating Psychotic Disorders” (SOUND PHARMACEUTICALS INCORPORATED, priority 2014, published 2024):
Entries after “also recorded” stand apart in the source; their conditions may differ.

Legend:
[1] = system: 3-NT levels in PFC of NVHL rats; assay: 3-Nitrotyrosine (3-NT) labeling in adult PFC of NVHL rats; assay type: in vivo, Sprague-Dawley rats; conditions: P61 NVHL rats, juvenile treatment
Excerpt: To assess oxidative stress, DNA oxidation with 8-oxo-7,8-dihydro-20-deoxyguanine (8-oxo-dG) labeling was quantified. […] 3-NT indicates nitration of proteins due to oxidative and nitrosative stress (Radi, 2004), and its increase in NVHL rats was prevented by NAC treatment during development (as shown in FIGS. 9A and 9B). […] A possible explanation for the levels of oxidative stress detected in the adult PFC following an NVHL is the reduced glutamatergic input from ventral hippocampus during development, as blocking NMDA receptors induces oxidative stress in PVI (Behrens et al., 2007).
(§1) Antioxidant pretreatment regimen: NAC (BioAdvantexPharma, Mississauga, Ontario, Canada) was administered in the drinking water at 900 mg/l. NAC treatment started at P5 or at P35, and previous work in mice has shown that NAC consumed by the dam is transmitted to the pups through her milk (das Neves Duarte et al., 2012). NAC treatment ended at P50. Fresh solutions were prepared every 2-3 days. Ebselen (Sound Pharmaceuticals Inc., Seattle, WA) was administered i.p. 5 days a week starting at P35 until the day of PPI testing (P60). Stock ebselen solution (20 mg/ml DMSO, frozen aliquots) was diluted 1:5 in sterile water and administered at a dose of 10 mg/kg. Control animals received an equivalent concentration of DMSO diluted 1:5 in water. […]

SZ = conditions: in vivo; cited from earlier work
[2] = system: perineuronal nets (PNN) in the PFC of NVHL rats; assay: WFA staining of perineuronal nets (PNN) around PVI in PFC of NVHL rats; assay type: in vivo, Sprague-Dawley rats; conditions: adult NVHL rats, juvenile treatment
Excerpt: To determine the types of interneurons expressing oxidative stress in NVHL rats, 8-oxo-dG with PV, calbindin (CB) and calretinin (CR) was co-labeled. […] About 50% of PVI were co-labeled with 8-oxo-dG, indicating oxidative stress is pervasive in this cell population. A marker of PVI maturation is Wisteria Floribunda agglutinin (WFA), a lectin that recognizes the perineuronal nets (PNN) enwrapping mature cortical PVI. […] PVI may be highly exposed to increased oxidative stress because they make up the majority of fast-spiking interneurons and their high energy metabolism may generate more reactive oxygen species than non-fast spiking neurons.
as §1

Structure (SMILES): CC(=O)N[C@@H](CS)C(=O)O [NAC, N-acetyl cysteine]
- effect on increase in 3-NT labeling in PFC [1]: prevented
- mismatch negativity in SZ (SZ): improved
- effect on reduced WFA staining / WFA-positive PVI (PNN) [2]: restored; also recorded: prevented
